Laboratory results taken from US12264134B2 (Merck Sharp & Dohme LLC, priority 2018, dated 2025).

Tests used:
[1] = target: T1, IDO1 (Homo sapiens, UniProt P14902); assay: IDO1 Human Whole blood Assay; format: cell-based; set-up: Human whole blood was drawn in sodium heparin coated tubes from healthy internal donors; from tissue; host or cells: human whole blood from healthy donors, stimulated with LPS and IFNγ; conditions: LPS and IFNγ stimulated, 18 h, read-out: Human Whole Blood Potency, IC50
T1 sequence (P14902 whole entry): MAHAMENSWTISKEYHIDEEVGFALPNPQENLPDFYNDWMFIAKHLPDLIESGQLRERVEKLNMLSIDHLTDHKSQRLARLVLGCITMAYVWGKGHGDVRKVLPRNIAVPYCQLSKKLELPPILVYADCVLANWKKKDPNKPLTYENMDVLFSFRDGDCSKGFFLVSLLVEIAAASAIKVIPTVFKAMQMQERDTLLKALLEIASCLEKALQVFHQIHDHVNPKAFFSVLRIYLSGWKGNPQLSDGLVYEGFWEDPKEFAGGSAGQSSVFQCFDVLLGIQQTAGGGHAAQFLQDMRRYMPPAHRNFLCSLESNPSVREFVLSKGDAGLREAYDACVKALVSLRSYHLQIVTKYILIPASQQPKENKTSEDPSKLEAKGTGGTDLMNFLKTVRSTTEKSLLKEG
Description: IDO1Human Whole blood Assay
Compounds to be tested were serially diluted in ten 3-fold steps in DMSO starting from 10 mM. 3 μL of compound dilutions or DMSO alone were then dispensed from the dilution plate into a polypropylene 96-well assay plate containing 97 μL of RPMI medium using an Echo 555 acoustic liquid handler (Labcyte). LPS and IFNγ was prepared in RPMI medium to a 10× of final conc. (1000 ng/mL), final concentration is 100 ng/mL.
Human whole blood was drawn in sodium heparin coated tubes from healthy internal donors. 240 μL of blood was transferred to each of the wells of a v-bottom 96 well plate. 30 μL of compound was transferred from intermediate dilution plate, and incubated for 15 min. 30 μL from stimulants was then transferred to blood and mixed thoroughly. Plate was covered with breathable membrane and incubated at 37° C. for overnight (18 h).
On day 2, isotope labeled standard solutions of kynurenine and tryptophan was made in water at 10× concentration and 30 μL was added to the blood at 3 μM final concentration. The assay plates were centrifuged at 300×G for 10 min with no brake to separate plasma from red blood cells. 60 μL of plasma samples was removed without disturbing red blood cells. Plasma was diluted with RPMI in 1:1 ratio and proteins were precipitated out with two volumes of Acetonitrile. The plates were centrifuged at 4000×G for 60 min. 20 μL of supernatant was carefully transferred to a 384 well plate containing 40 μL of 0.1% formic acid in water and analyzed by LC/MS/MS.
LC/MS/MS analyses were performed using Thermo Fisher's LX4-TSQ Quantum Ultra system. This system consists of four Agilent binary high-performance liquid chromatography (HPLC) pumps and a TSQ Quantum Ultra triple quadrupole MS/MS instrument. For each sample, 5 μL were injected onto an Atlantis T3 column (2.1 mm×150 mm, 3 μm particle size) from Waters. The mobile phase gradient pumped at 0.8 mL/min was used to elute the analytes from the column at 25° C. The elution started at 0% B increasing linearly to 25% B at 6.5 min, holding at 25% for 1 min, re-equilibrating to 10 min. Mobile phase A consisted of 0.1% formic acid in water. Mobile phase B consisted of 0.1% of formic acid in acetonitrile. Data were acquired in positive mode using a HESI interface. The operational parameters for the TSQ Quantum Ultra instrument were a spray voltage of 4000 V, capillary temperature of 380° C., vaporizer temperature 400° C., shealth gas 60 arbitrary units, Aux gas 20 arbitrary units, tube lens 85 and collision gas 1.2 mTorr. SRM chromatograms of kynurenine (Q1: 209.2>Q3:94.0) and internal standard (Q1: 215.3>Q3:98.2) were collected for 90 sec. The peak area was integrated by Xcalibur Quan software. The ratios between the kynurenine generated in the reaction and 2D6-Kynurenine spiked-in internal standard were used to generate percentage inhibition and IC50 values. Compounds were titrated and IC50's were calculated by 4 parameter sigmoidal curve fitting formula.

[2] = target: T1, IDO1; assay: IDO1 Cellular Assay in HeLa Cells Stimulated with IFNγ; format: cell-based; conditions: read-out: HeLa Cell Potency, IC50

Compound	IC50 [1]	IC50 [2]
Cc1cccc(N2CCN(C(=O)Cn3nc(C(=O)N4CCC(O)CC4)c4c3CCC4)CC2)c1C [Example 87, 1-[4-(2,3-dimethylphenyl)piperazin-1-yl]-2-[3-(4-hydroxypiperidine-1-carbonyl)-5,6-dihydrocyclopenta[c]pyrazol-1(4H)-yl]ethan-1-one]	2300 nM	4.27 nM
Cc1cccc(N2CCN(C(=O)Cn3nc(C(=O)N4C[C@@H](C)O[C@@H](C)C4)c4c3CCC4)CC2)c1C [Example 88, 2-{3-[(2R,6S)-2,6-dimethylmorpholine-4-carbonyl]-5,6-dihydrocyclopenta[c]pyrazol-1(4H)-yl}-1-[4-(2,3-dimethylphenyl)piperazin-1-yl]ethan-1-one]	416 nM	2.56 nM
Cc1cccc(N2CCN(C(=O)Cn3nc(C(=O)N4CCN(S(=O)(=O)N(C)C)CC4)c4c3CCC4)CC2)c1C [Example 89, 4-(1-{2-[4-(2,3-dimethylphenyl)piperazin-1-yl]-2-oxoethyl}-1,4,5,6-tetrahydrocyclopenta[c]pyrazole-3-carbonyl)-N,N-dimethylpiperazine-1-sulfonamide]	454 nM	2.96 nM
Cc1cccc(N2CCN(C(=O)Cn3nc(C(=O)N4CCC(NS(C)(=O)=O)CC4)c4c3CCC4)CC2)c1C [Example 90, N-[1-(1-{2-[4-(2,3-dimethylphenyl)piperazin-1-yl]-2-oxoethyl}-1,4,5,6-tetrahydrocyclopenta[c]pyrazole-3-carbonyl)piperidin-4-yl]methanesulfonamide]	292 nM	2.9 nM
Cc1cccc(N2CCN(C(=O)Cn3nc(C(=O)N4CC[C@@H](O)[C@H](F)C4)c4c3CCC4)CC2)c1C [Example 91, 1-[4-(2,3-dimethylphenyl)piperazin-1-yl]-2-{3-[(3R,4R)-3-fluoro-4-hydroxypiperidine-1-carbonyl]-5,6-dihydrocyclopenta[c]pyrazol-1(4H)-yl}ethan-1-one]	9550 nM	5.8 nM
Cc1cccc(N2CCN(C(=O)Cn3nc(C(=O)N4CC[C@H](O)[C@H](F)C4)c4c3CCC4)CC2)c1C [Example 92, 1-[4-(2,3-dimethylphenyl)piperazin-1-yl]-2-{3-[(3R,4S)-3-fluoro-4-hydroxypiperidine-1-carbonyl]-5,6-dihydrocyclopenta[c]pyrazol-1(4H)-yl}ethan-1-one]	256 nM	10.8 nM
Cc1cccc(N2CCN(C(=O)Cn3nc(C(=O)N4CCC5(CCOC5)CC4)c4c3CCC4)CC2)c1C [Example 93, 1-[4-(2,3-dimethylphenyl)piperazin-1-yl]-2-[3-(2-oxo-8-azaspiro[4.5]decane-8-carbonyl)-5,6-dihydrocyclopenta[c]pyrazol-1(4H)-yl]ethan-1-one]	180 nM	3.11 nM
Cc1cccc(N2CCN(C(=O)Cn3nc(C(=O)N4CC[C@H](O)[C@@H](C)C4)c4c3CCC4)CC2)c1C [Example 94, 1-[4-(2,3-dimethylphenyl)piperazin-1-yl]-2-{3-[(3S,4S)-4-hydroxy-3-methylpiperidine-1-carbonyl]-5,6-dihydrocyclopenta[c]pyrazol-1(4H)-yl}ethan-1-one]	345 nM	2.46 nM
Cc1cccc(N2CCN(C(=O)Cn3nc(C(=O)N4CCC(CO)CC4)c4c3CCC4)CC2)c1C [Example 101, 1-[4-(2,3-dimethylphenyl)piperazin-1-yl]-2-{3-[4-(hydroxymethyl)piperidine-1-carbonyl]-5,6-dihydrocyclopenta[c]pyrazol-1(4H)-yl}ethan-1-one]	711 nM	6.12 nM
Cc1cccc(N2CCN(C(=O)Cn3nc(C(=O)N4CC[C@@H](O)[C@@H](C)C4)c4c3CCC4)CC2)c1C [Example 106, 1-[4-(2,3-dimethylphenyl)piperazin-1-yl]-2-{3-[(3S,4R)-4-hydroxy-3-methylpiperidine-1-carbonyl]-5,6-dihydrocyclopenta[c]pyrazol-1(4H)-yl}ethan-1-one]	802 nM	3.87 nM
Cc1cccc(N2CCN(C(=O)Cn3nc(C(=O)N4CC[C@H](O)[C@H](C)C4)c4c3CCC4)CC2)c1C [Example 107, 1-[4-(2,3-dimethylphenyl)piperazin-1-yl]-2-{3-[(3R,4S)-4-hydroxy-3-methylpiperidine-1-carbonyl]-5,6-dihydrocyclopenta[c]pyrazol-1(4H)-yl}ethan-1-one]	154 nM	1.2 nM
Cc1cccc(N2CCN(C(=O)Cn3nc(C(=O)N4CC[C@@H](O)[C@H](C)C4)c4c3CCC4)CC2)c1C [Example 108, 1-[4-(2,3-dimethylphenyl)piperazin-1-yl]-2-{3-[(3R,4R)-4-hydroxy-3-methylpiperidin-1-carbonyl]-5,6-dihydrocyclopenta[c]pyrazol-1(4H)-yl}ethan-1-one]	77 nM	1.79 nM
Cc1cccc(N2CCN(C(=O)Cn3nc(C(=O)N4CC[C@H](O)[C@@H](C)C4)c4c3CCC4)CC2)c1C [Example 109, 1-[4-(2,3-dimethylphenyl)piperazin-1-yl]-2-{3-[(3S,4S)-4-hydroxy-3-methylpiperidine-1-carbonyl]-5,6-dihydrocyclopenta[c]pyrazol-1(4H)-yl}ethan-1-one]	399 nM	1.86 nM
Cc1cccc(N2CCN(C(=O)Cn3nc(C(=O)N4CCC(OCCO)CC4)c4c3CCC4)CC2)c1C [Example 120, 1-[4-(2,3-dimethylphenyl)piperazin-1-yl]-2-{3-[4-(2-hydroxyethoxy)piperidine-1-carbonyl]-5,6-dihydrocyclopenta[c]pyrazol-1(4H)-yl}ethan-1-one]	199 nM	2.97 nM
Cc1cccc(N2CCN(C(=O)Cn3nc(C(=O)N4CCN(S(C)(=O)=O)C[C@@H]4C)c4c3CCC4)CC2)c1C [Example 124, 1-[4-(2,3-dimethylphenyl)piperazin-1-yl]-2-{3-[(2S)-2-methyl-4-(methylsulfonyl)piperazine-1-carbonyl]-5,6-dihydrocyclopenta[c]pyrazol-1(4H)-yl}ethan-1-one]	877 nM	1.32 nM
Cc1cccc(N2CCN(C(=O)Cn3nc(C(=O)N4CC[C@@H](O)C[C@@H]4C)c4c3CCC4)CC2)c1C [Example 125, 1-[4-(2,3-dimethylphenyl)piperazin-1-yl]-2-{3-[(2S,4R)-4-hydroxy-2-methylpiperidine-1-carbonyl]-5,6-dihydrocyclopenta[c]pyrazol-1(4H)-yl}ethan-1-one]	444 nM	3.29 nM
COC1CCN(C(=O)c2nn(CC(=O)N3CCN(c4cccc(C)c4C)CC3)c3c2CCC3)CC1 [Example 126, 1-[4-(2,3-dimethylphenyl)piperazin-1-yl]-2-[3-(4-methoxypiperidine-1-carbonyl)-5,6-dihydrocyclopenta[c]pyrazol-1(4H)-yl]ethan-1-one]	300 nM	2.61 nM
Cc1cccc(N2CCN(C(=O)Cn3nc(C(=O)N4CCN(S(C)(=O)=O)CC4)c4c3CCC4)CC2)c1C [Example 127, 1-[4-(2,3-dimethylphenyl)piperazin-1-yl]-2-{3-[4-(methylsulfonyl)piperazine-1-carbonyl]-5,6-dihydrocyclopenta[c]pyrazol-1(4H)-yl}ethan-1-one]	126 nM	2.36 nM
CC(=O)NC1CCN(C(=O)c2nn(CC(=O)N3CCN(c4cccc(C)c4C)CC3)c3c2CCC3)CC1 [Example 128, N-[1-(1-{2-[4-(2,3-dimethylphenyl)piperazin-1-yl]-2-oxoethyl}-1,4,5,6-tetrahydrocyclopenta[c]pyrazole-3-carbonyl)piperidin-4-yl]acetamide]	192 nM	4.07 nM
